Reference: patent US5420335A, “Parenteral nutrients based on watersoluble glycerol bisacetoacetates” (priority 1993, dated 1995)
Where “and” joins values, the source holds several entries; their conditions need not be identical. Identical values can stand only once. Entries after “also recorded” stand apart in the source; their conditions may differ.

What was measured:
[1] = Liver weight after 7 days of infusion; assay type: in vivo, rat (male Sprague-Dawley); conditions: Table 11, Example 4; for Liver/100 GM: as percentage of body weight; for Liver Wt.: end of day 7
Protocol: (§1) Infusate volume, oral food intake, body weight and urinary volume and total nitrogen were monitored daily for each rat. Infusate volume and food intake were determined by weighing the appropriate container at the start and end of each 24 hr. period. Measurements were recorded between 9 and 10 AM each day. At the end of the 7th day, rats were sacrificed, and blood and liver were harvested. Plasma was separated for measurement of free fatty acids, glucose, and ketone bodies. Liver was weighed and a sample was fixed in buffered formalin for gross histology.
(§2) The data were analyzed for significance by the one-way analysis of variance with repeated measures and comparing the effect of dietary treatment on each day. […] The null hypothesis was concluded invalid if p≤0.05. The analysis of variance was computed on a SAS statistical package. […]

[2] = Overall evaluation as a parenteral nutrient; assay type: in vivo, rat (male Sprague-Dawley); conditions: in words
Protocol: (§3) Water was available ad libitum at all times.
(§4) The vein was then ligated dorsally to the catheter. […] Body weights were measured daily.
as §1
(§5) The data were analyzed for significance by the one-way analysis of variance with repeated measures and comparing the effect of dietary treatment on each day. […] The null hypothesis was concluded invalid if p≤0.05. The analysis of variance was computed on a SAS statistical package.

[3] = Nitrogen balance (difference between intake and urinary output); assay type: in vivo, rat (male Sprague-Dawley); conditions: for Nitrogen Balance, Difference Between Intake And Output: average of 9 rats
Protocol: as §3, §4, §1, §5
FIG. 3 illustrates the difference between oral intake and urinary nitrogen output which is termed nitrogen balance. It is representative of nitrogen balance because urinary nitrogen is the major route for body loss of nitrogen.
The experimental compound contains 8% nitrogen. With an infusion of 5.6 grams/day, infused nitrogen would provide approximately 450 mg more than that listed in the data tables. The final balance figures includes this number which is calculated based on the actual daily infusion rate for each rat.

[4] = Mortality and gross toxicity on intravenous infusion; conditions: in words; conclusion
Protocol: as §3, §4

[5] = Plasma free fatty acids, glucose and ketone bodies after 7 days of infusion; assay type: in vivo, rat (male Sprague-Dawley); conditions: for ACAC / BOHB / Glucose / Total FFA: Table 11, Example 4
Protocol: as §1, §5

[6] = Oral dietary nitrogen (food) intake of intravenously infused rats; assay type: in vivo, rat (male Sprague-Dawley); conditions: in words
Protocol: as §3, §4, §1, §5
(§6) This compound has an estimated energy density of 4.86 kcal/gram based on thermodynamic data from similar compounds.

[7] = as above; assay type: in vivo, rat (male Sprague-Dawley); conditions: Table 7, Example 4, oral only
[8] = Daily body weight of intravenously infused rats; assay type: in vivo, rat (male Sprague-Dawley); conditions: for Daily Body Weight: Table 10, Example 4
Protocol: as §3, §4, §1, §5, §6

[9] = Daily urinary nitrogen losses of intravenously infused rats; assay type: in vivo, rat (male Sprague-Dawley); conditions: for Urinary Nitrogen: Table 8, Example 4
Protocol: as §3, §4, §1, §2

## CC(=O)CC(=O)NCC(O)CO (centres unmarked) [Compound 2, 1-acetoacetamido-2,3-propane diol]
[1]; average
  Liver/100 GM: 3.891
  Liver Wt.: 8.842
[1]; individual rat
  Liver/100 GM: 3.621 and 5.165 and 3.928 and 3.739 and 4.018 and 3.066 and 4.304 and 3.228 and 3.95
  Liver Wt.: 9.0537 and 11.2604 and 9.1128 and 7.3291 and 9.3228 and 7.2672 and 9.4265 and 7.4879 and 9.3213
[2]
  efficacy as parenteral nutrient / energy source: not a good source of energy
[2]; listed as 1-acetoacetamido-2,3-propane diol
  efficacy as parenteral nutrient / energy source: ineffective as parenteral nutrients
[3]; Table 9, Example 4, infused nitrogen not considered, day 1
  Nitrogen Balance, Difference Between Intake And Output: -198 mg N
[3]; Table 9, Example 4, infused nitrogen not considered, day 2
  Nitrogen Balance, Difference Between Intake And Output: -173 mg N
[3]; Table 9, Example 4, infused nitrogen not considered, day 3
  Nitrogen Balance, Difference Between Intake And Output: -146 mg N
[3]; Table 9, Example 4, infused nitrogen not considered, day 4
  Nitrogen Balance, Difference Between Intake And Output: -142 mg N
[3]; Table 9, Example 4, infused nitrogen not considered, day 5
  Nitrogen Balance, Difference Between Intake And Output: -109 mg N
[3]; Table 9, Example 4, infused nitrogen not considered, day 6
  Nitrogen Balance, Difference Between Intake And Output: -114 mg N
[3]; Table 9, Example 4, infused nitrogen not considered, day 7
  Nitrogen Balance, Difference Between Intake And Output: -101 mg N
[3]; Table 9A, Example 4, infused nitrogen included, day 1
  Nitrogen Balance, Difference Between Intake And Output: 256 mg N
[3]; Table 9A, Example 4, infused nitrogen included, day 2
  Nitrogen Balance, Difference Between Intake And Output: 258 mg N
[3]; Table 9A, Example 4, infused nitrogen included, day 3
  Nitrogen Balance, Difference Between Intake And Output: 361 mg N
[3]; Table 9A, Example 4, infused nitrogen included, day 4
  Nitrogen Balance, Difference Between Intake And Output: 302 mg N
[3]; Table 9A, Example 4, infused nitrogen included, day 5
  Nitrogen Balance, Difference Between Intake And Output: 317 mg N
[3]; Table 9A, Example 4, infused nitrogen included, day 6
  Nitrogen Balance, Difference Between Intake And Output: 299 mg N
[3]; Table 9A, Example 4, infused nitrogen included, day 7
  Nitrogen Balance, Difference Between Intake And Output: 336 mg N
[3]; in words, 7 days
  nitrogen balance: negative nitrogen balance if nitrogen content of the compound is not considered
[4]
  lethality: not acutely nor chronically lethal
[5]; plasma, average
  ACAC: 0.195 mmol/L
  BOHB: 0.897 mmol/L
  Glucose: 108.589 mg/dL
  Total FFA: 0.580 mmol/L
[5]; plasma, individual rat
  ACAC: 0.0958 mmol/L and 0.1231 mmol/L and 0.1385 mmol/L and 0.1032 mmol/L and 0.3378 mmol/L and 0.0999 mmol/L and 0.3415 mmol/L and 0.3225 mmol/L
  BOHB: 0.8481 mmol/L and 0.9004 mmol/L and 0.2501 mmol/L and 1.13 mmol/L and 0.8685 mmol/L and 1.3611 mmol/L and 0.5709 mmol/L and 1.163 mmol/L and 0.9826 mmol/L
  Glucose: 109.8 mg/dL and 105.2 mg/dL and 112.1 mg/dL and 111.4 mg/dL and 121 mg/dL and 91.1 mg/dL and 132.1 mg/dL and 114.6 mg/dL and 80 mg/dL
  Total FFA: 0.306 mmol/L and 0.472 mmol/L and 0.376 mmol/L and 1.408 mmol/L and 0.546 mmol/L and 0.651 mmol/L and 0.286 mmol/L and 0.676 mmol/L and 0.498 mmol/L
[5]; in words, end of day 7
  blood / plasma glucose: low blood glucose
[5]; in words, plasma, end of day 7
  ketone bodies: absence of elevated plasma acetoacetate; also recorded: neither of the ketone bodies were elevated when compared to the saline infused rats
[6]; Example 4
  appetite depression: did not depress the rats appetite
[6]; vs saline and other groups, 7 days
  differences in dietary nitrogen intake among the three groups: no differences in dietary nitrogen intake among the three groups
[7]; day 1, average of 9 rats
  Dietary Nitrogen Intake: 279 MG N
[7]; day 1, individual rat
  Dietary Nitrogen Intake: 513.24 MG N and 92.12 MG N and 164.5 MG N and 138.18 MG N and 171.08 MG N and 493.5 MG N and 440.86 MG N and 355.32 MG N
[7]; day 2, average of 9 rats
  Dietary Nitrogen Intake: 376 MG N
[7]; day 2, individual rat
  Dietary Nitrogen Intake: 532.98 MG N and 256.62 MG N and 526.4 MG N and 59.22 MG N and 282.94 MG N and 506.66 MG N and 263.2 MG N and 447.44 MG N
[7]; day 3, average of 9 rats
  Dietary Nitrogen Intake: 429 MG N
[7]; day 3, individual rat
  Dietary Nitrogen Intake: 532.98 MG N and 407.96 MG N and 546.14 MG N and 118.44 MG N and 506.66 MG N and 500.08 MG N and 210.56 MG N and 513.24 MG N and 526.4 MG N
[7]; day 4, average of 9 rats
  Dietary Nitrogen Intake: 388 MG N
[7]; day 4, individual rat
  Dietary Nitrogen Intake: 480.34 MG N and 263.2 MG N and 473.76 MG N and 65.8 MG N and 296.1 MG N and 519.82 MG N and 355.32 MG N
[7]; day 5, average of 9 rats
  Dietary Nitrogen Intake: 369 MG N
[7]; day 5, individual rat
  Dietary Nitrogen Intake: 480.34 MG N and 427.7 MG N and 355.32 MG N and 0 MG N and 52.64 MG N and 500.08 MG N and 519.82 MG N and 506.66 MG N
[7]; day 6, average of 9 rats
  Dietary Nitrogen Intake: 434 MG N
[7]; day 6, individual rat
  Dietary Nitrogen Intake: 526.4 MG N and 421.12 MG N and 388.22 MG N and 0 MG N and 519.82 MG N and 500.08 MG N and 513.24 MG N and 506.66 MG N
[7]; day 7, average of 9 rats
  Dietary Nitrogen Intake: 466 MG N
[7]; day 7, individual rat
  Dietary Nitrogen Intake: 526.4 MG N and 546.14 MG N and 506.66 MG N and 0 MG N and 532.98 MG N and 519.82 MG N
[8]; day 0, average of 9 rats
  Daily Body Weight: 244 Grams
[8]; day 0, individual rat
  Daily Body Weight: 247 Grams and 223 Grams and 252 Grams and 251 Grams and 259 Grams and 236 Grams and 243 Grams and 237 Grams
[8]; day 1, average of 9 rats
  Daily Body Weight: 234 Grams
[8]; day 1, individual rat
  Daily Body Weight: 243 Grams and 207 Grams and 240 Grams and 230 Grams and 244 Grams and 242 Grams and 227 Grams and 239 Grams and 237 Grams
[8]; day 2, average of 9 rats
  Daily Body Weight: 234 Grams
[8]; day 2, individual rat
  Daily Body Weight: 247 Grams and 205 Grams and 239 Grams and 227 Grams and 243 Grams and 230 Grams and 235 Grams and 237 Grams
[8]; day 3, average of 9 rats
  Daily Body Weight: 234 Grams
[8]; day 3, individual rat
  Daily Body Weight: 251 Grams and 204 Grams and 238 Grams and 223 Grams and 240 Grams and 243 Grams and 235 Grams and 233 Grams
[8]; day 4, average of 9 rats
  Daily Body Weight: 233 Grams
[8]; day 4, individual rat
  Daily Body Weight: 255 Grams and 199 Grams and 234 Grams and 208 Grams and 235 Grams and 233 Grams and 244 Grams
[8]; day 5, average of 9 rats
  Daily Body Weight: 236 Grams
[8]; day 5, individual rat
  Daily Body Weight: 253 Grams and 246 Grams and 234 Grams and 212 Grams and 230 Grams and 241 Grams and 236 Grams and 237 Grams
[8]; day 6, average of 9 rats
  Daily Body Weight: 235 Grams
[8]; day 6, individual rat
  Daily Body Weight: 251 Grams and 242 Grams and 233 Grams and 204 Grams and 243 Grams and 248 Grams and 232 Grams and 231 Grams
[8]; day 7, average of 9 rats
  Daily Body Weight: 228 Grams
[8]; day 7, individual rat
  Daily Body Weight: 250 Grams and 218 Grams and 232 Grams and 196 Grams and 237 Grams and 219 Grams and 236 Grams
[8]; in words, 7 days
  change in body weight: held relatively constant until the final day when they lose weight; also recorded: did not lose weight nor did they gain
[9]; day 1, average of 9 rats
  Urinary Nitrogen: 477 mg
[9]; day 1, individual rat
  Urinary Nitrogen: 562.1 mg and 483.2 mg and 380.8 mg and 411.4 mg and 401.7 mg and 527.6 mg and 477.8 mg and 509.6 mg and 536.4 mg
[9]; day 2, average of 9 rats
  Urinary Nitrogen: 550 mg
[9]; day 2, individual rat
  Urinary Nitrogen: 661.5 mg and 542.5 mg and 499.8 mg and 464 mg and 462.84 mg and 583.3 mg and 486 mg and 528 mg and 718.2 mg
[9]; day 3, average of 9 rats
  Urinary Nitrogen: 576 mg
[9]; day 3, individual rat
  Urinary Nitrogen: 671.9 mg and 704.1 mg and 548.1 mg and 413.8 mg and 619.3 mg and 603.8 mg and 315.2 mg and 622.2 mg and 682.4 mg
[9]; day 4, average of 9 rats
  Urinary Nitrogen: 531 mg
[9]; day 4, individual rat
  Urinary Nitrogen: 559.8 mg and 477.4 mg and 468.3 mg and 385 mg and 499.7 mg and 603.7 mg and 494.3 mg and 614.8 mg and 674.2 mg
[9]; day 5, average of 9 rats
  Urinary Nitrogen: 479 mg
[9]; day 5, individual rat
  Urinary Nitrogen: 599 mg and 456 mg and 434.3 mg and 300.2 mg and 365.9 mg and 503.5 mg and 525.1 mg and 552.9 mg and 572.3 mg
[9]; day 6, average of 9 rats
  Urinary Nitrogen: 548 mg
[9]; day 6, individual rat
  Urinary Nitrogen: 569 mg and 659.4 mg and 440.8 mg and 286.1 mg and 545.2 mg and 538.5 mg and 608.2 mg and 599 mg and 686.7 mg
[9]; day 7, average of 9 rats
  Urinary Nitrogen: 567 mg
[9]; day 7, individual rat
  Urinary Nitrogen: 602 mg and 613.5 mg and 519.4 mg and 81.4 mg and 588.3 mg and 633.1 mg and 678 mg and 683.9 mg and 706.8 mg
[9]; in words, 7 days
  urinary nitrogen losses: reflects the greater nitrogen intake by rats infused with the experimental compound
